# Assay results: patent EP4692080A1, “PREPARATION METHOD FOR SALT FORM AND CRYSTAL FORM OF 2,6-PIPERIDINEDIONE COMPOUND AND USE THEREOF” (priority 2023, dated 2024)
# Structures can show the parent of a compound that is named as a salt.
# Legend:
# [1] = biological target: T1, IRAK4 (Homo sapiens, UniProt Q9NWZ3); test: Target protein degradation in K562 IRAK4-HiBiT cells (Nano-Glo HiBiT assay); format: cell-based; details: K562, read-out: Maximum Degradation Rate
# T1 construct: expressed in transfected cells; host or cells: K562 IRAK4-HiBiT cells
# T1 sequence (Q9NWZ3 1-460): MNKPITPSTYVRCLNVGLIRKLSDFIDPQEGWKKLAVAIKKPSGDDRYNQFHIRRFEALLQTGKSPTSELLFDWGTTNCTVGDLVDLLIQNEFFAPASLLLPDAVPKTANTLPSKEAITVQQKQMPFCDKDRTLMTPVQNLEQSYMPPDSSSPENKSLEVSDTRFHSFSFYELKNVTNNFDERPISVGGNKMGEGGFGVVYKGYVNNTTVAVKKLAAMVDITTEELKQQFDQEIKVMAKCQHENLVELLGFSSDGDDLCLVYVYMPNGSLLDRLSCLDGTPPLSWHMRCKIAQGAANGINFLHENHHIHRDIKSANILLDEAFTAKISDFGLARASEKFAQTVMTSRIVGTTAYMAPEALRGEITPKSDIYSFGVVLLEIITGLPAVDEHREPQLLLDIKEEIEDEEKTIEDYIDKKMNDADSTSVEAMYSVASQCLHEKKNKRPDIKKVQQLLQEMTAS
# Description: Objective: In this experiment, the degradation effect of the compound of formula (I) on the target protein IRAK4 in K562 IRAK4-HiBiT cells was detected.
# • Cells: K562 IRAK4-HiBiT cells • Culture medium: RPMI 1640 + 10% fetal bovine serum + 2 mM glutamine + 1 mM sodium pyruvate + penicillin/streptomycin • Positive control: 1000 nM; negative control: 0.1% DMSO Table 7. Reagents and consumables […]
# • (1) The cell culture medium was discarded, and the cells were washed once with DPBS, digested with trypsin, and counted to prepare a cell suspension of […]. • (2) 25 µL/well of cell suspension was added to the assay plate containing the test compound using Multidrop Combi at medium speed. • (3) The assay plate containing cells was returned to an incubator with 5% CO2 at 37°C and incubated for 16 to 18 hours.
# • (1) 25 µL/well of assay reagent (NanoGlo lysis buffer + substrate + LgBit protein) was added to the assay plate using Multidrop Combi at high speed, and the plate was shaken for 10 minutes. • (2) The plate was centrifuged at 2000 rpm for 1 minute to remove air bubbles. • (3) The plate was read on Envision using US Luminescence detection method. […]
# [2] = biological target: T2, IKZF1 (Homo sapiens, UniProt Q13422+Q96SW2); test: In cell western analysis of IKZF1 protein expression level in MM.1S cells; format: cell-based; details: MM1.S, read-out: Maximum Degradation Rate Dmax
# T2 construct: expression levels of IKZF1 and IKZF3 proteins in MM.1S cells; host or cells: MM.1S cells
# T2 sequence (Q13422 whole entry): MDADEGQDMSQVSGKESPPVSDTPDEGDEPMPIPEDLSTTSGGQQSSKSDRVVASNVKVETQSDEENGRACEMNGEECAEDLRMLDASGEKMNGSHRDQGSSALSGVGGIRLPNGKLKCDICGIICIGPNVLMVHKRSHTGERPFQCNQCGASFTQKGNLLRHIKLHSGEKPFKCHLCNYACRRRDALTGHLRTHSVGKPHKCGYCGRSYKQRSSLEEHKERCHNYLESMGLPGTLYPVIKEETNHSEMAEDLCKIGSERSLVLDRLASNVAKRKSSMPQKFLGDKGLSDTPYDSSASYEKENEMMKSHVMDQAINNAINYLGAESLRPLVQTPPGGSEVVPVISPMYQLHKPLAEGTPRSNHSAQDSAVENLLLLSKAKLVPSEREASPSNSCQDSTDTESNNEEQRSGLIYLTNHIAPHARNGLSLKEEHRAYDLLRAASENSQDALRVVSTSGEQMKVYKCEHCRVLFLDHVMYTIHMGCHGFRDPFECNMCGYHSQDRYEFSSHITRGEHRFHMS
# T2 sequence (Q96SW2 whole entry): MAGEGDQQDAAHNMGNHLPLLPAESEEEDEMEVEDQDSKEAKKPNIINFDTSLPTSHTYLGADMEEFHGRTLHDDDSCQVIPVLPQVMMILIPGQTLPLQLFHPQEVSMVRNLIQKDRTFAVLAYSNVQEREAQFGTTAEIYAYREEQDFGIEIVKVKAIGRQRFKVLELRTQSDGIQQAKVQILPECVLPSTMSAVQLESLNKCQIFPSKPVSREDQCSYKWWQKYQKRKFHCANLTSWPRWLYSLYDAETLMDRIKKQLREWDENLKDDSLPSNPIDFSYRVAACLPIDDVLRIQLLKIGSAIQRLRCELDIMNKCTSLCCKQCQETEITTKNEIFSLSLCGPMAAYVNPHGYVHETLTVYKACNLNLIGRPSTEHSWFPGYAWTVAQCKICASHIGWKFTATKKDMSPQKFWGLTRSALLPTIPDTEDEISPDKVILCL
# T2 sequence (Q16531 whole entry partner): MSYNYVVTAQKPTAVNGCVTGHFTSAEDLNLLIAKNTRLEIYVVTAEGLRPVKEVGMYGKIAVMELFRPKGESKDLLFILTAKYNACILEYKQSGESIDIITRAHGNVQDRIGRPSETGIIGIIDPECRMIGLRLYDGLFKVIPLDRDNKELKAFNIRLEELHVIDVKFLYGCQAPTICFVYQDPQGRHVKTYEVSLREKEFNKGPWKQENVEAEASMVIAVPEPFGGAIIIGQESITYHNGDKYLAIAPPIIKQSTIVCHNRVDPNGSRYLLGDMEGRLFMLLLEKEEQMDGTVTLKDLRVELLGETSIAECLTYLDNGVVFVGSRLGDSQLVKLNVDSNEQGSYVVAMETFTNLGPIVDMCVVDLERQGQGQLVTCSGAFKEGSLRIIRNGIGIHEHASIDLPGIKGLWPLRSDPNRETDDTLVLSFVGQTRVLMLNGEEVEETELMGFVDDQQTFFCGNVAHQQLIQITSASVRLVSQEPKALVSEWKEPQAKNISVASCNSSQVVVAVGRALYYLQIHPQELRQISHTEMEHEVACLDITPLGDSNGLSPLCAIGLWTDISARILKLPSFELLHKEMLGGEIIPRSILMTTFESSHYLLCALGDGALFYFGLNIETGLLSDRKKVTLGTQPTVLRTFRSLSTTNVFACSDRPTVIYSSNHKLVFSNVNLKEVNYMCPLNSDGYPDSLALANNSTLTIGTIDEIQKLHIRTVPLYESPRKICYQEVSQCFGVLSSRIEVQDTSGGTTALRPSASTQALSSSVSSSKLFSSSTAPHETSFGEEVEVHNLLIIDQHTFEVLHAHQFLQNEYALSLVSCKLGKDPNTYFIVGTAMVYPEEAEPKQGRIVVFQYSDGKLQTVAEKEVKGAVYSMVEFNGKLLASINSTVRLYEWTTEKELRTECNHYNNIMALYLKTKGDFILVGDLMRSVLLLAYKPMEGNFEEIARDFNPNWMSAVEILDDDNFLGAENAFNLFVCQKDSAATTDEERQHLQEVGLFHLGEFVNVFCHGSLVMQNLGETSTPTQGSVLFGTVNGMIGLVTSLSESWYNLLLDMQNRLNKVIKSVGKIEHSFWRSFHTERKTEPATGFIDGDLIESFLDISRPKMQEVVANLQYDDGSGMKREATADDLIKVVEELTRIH
# Description: (§1) Objective: The experiment was conducted to evaluate the degradation effects of the compound of formula (I) on IKZF1 and IKZF3 proteins in MM.1S cells by detecting their impact on the expression levels of IKZF1 and IKZF3 proteins in MM.1S cells.
# (§2) • Cell line: MM.1S cell (obtained from ATCC; Cat. No. CRL-2974) • Negative control: 0.1% DMSO Table 10. Reagents and consumables
# (§3) • 1) MM.1S cells in the logarithmic growth phase were seeded into a 96-well plate at 1.2×10^5 cells per well and cultured overnight. • 2) On the second day, drug treatment was initiated with a starting concentration of 300 nM, followed by a 3-fold dilution in triplicate wells, with 10 concentration gradients (containing DMSO), and incubated for 24 hours in a culture incubator. • 3) The mixture was centrifuged, and the cell supernatant was carefully removed. […]
# (§4) GraphPad Prism 6 software was utilized to fit the curve with the inhibition rate data, and the DC50 value was calculated.
# [3] = biological target: T3, IKZF3 (Homo sapiens, UniProt Q96SW2+Q9UKT9); test: In cell western analysis of IKZF3 protein expression level in MM.1S cells; format: cell-based; details: MM1.S, read-out: Maximum Degradation Rate Dmax
# T3 construct: expression levels of IKZF1 and IKZF3 proteins in MM.1S cells; host or cells: MM.1S cells
# T3 sequence (Q9UKT9 whole entry): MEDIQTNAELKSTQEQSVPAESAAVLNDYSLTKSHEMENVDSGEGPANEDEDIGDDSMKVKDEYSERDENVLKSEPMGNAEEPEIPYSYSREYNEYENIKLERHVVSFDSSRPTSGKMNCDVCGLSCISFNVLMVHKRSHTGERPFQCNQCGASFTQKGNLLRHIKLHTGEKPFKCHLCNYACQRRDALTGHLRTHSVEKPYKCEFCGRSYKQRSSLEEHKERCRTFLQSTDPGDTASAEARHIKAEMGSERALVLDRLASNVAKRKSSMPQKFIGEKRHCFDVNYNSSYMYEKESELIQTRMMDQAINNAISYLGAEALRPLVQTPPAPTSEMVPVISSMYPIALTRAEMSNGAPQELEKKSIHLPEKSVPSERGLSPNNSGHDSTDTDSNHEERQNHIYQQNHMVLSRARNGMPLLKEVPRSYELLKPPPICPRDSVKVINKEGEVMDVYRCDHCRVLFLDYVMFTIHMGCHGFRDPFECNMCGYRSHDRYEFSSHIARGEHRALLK
# T3 sequence (Q96SW2 whole entry): as the sequence (Q96SW2 whole entry) above
# T3 sequence (Q16531 whole entry partner): as the sequence (Q16531 whole entry partner) above
# Description: as §1, §2, §3, §4
# [4] = Pharmacokinetic evaluation in mice; format: in vivo, C57BL/6 or C57 male mice
# Text: C57BL/6 or C57 male mice were selected as the test animals for this study. The LC/MS/MS method was employed to quantitatively determine the plasma drug concentrations at various time points after intravenous injection or intragastric administration of the test compound, aiming to evaluate the pharmacokinetic characteristics of the compound of the present disclosure in mice.
# C57BL/6 or C57 mice (male, 20 to 30g, 7 to 10 weeks old, Beijing Vital River).
# A clear solution of the test compound was injected intravenously into the tail vein of C57BL/6 mice (fasted overnight) (vehicle: 10% DMSO/10% solutol/80% H2O), or administered intragastrically to C57 mice (fed). […] The mixture was thoroughly vortexed and mixed, and centrifuged at 6000 g for 3 minutes at 2 to 8°C. […] The mixture was thoroughly vortexed and mixed, and centrifuged at 6000 g for 3 minutes at 2 to 8°C. Plasma drug concentrations were determined by the LC-MS/MS method, and relevant pharmacokinetic parameters were calculated using Phoenix WinNonlin 8.2.0 pharmacokinetic software with non-compartmental model linear-log trapezoidal method.
# [5] = Pharmacokinetic evaluation in beagle dogs; format: in vivo, Male beagle dogs; details: fed
# Description: Male beagle dogs were selected as the experimental animals in this study.
# Beagle dogs (male, 7 to 10 kg, Beijing Mars Biotechnology Co., Ltd.).
# A clear solution of the test compound was slowly injected intravenously into beagle dogs (fed) via the peripheral vein (vehicle: 5% DMSO/10% Solutol/85% H2O), or administered intragastrically to beagle dogs (fed). For intravenous administration, 0.5 mL of blood was collected from the peripheral vein at 0.083, 0.25, 0.5, 1, 2, 4, 6, 8, and 24 h after administration, placed in EDTA-2K anticoagulant tubes, and centrifuged at 3200 g for 10 minutes at 2 to 8°C to separate the supernatant. For intragastric administration, 0.5 mL of blood was collected from the peripheral vein at 0.083, 0.25, 0.5, 1, 2, 4, 6, 8, and 24 h after administration, placed in EDTA-2K anticoagulant tubes, and centrifuged at 3200 g for 10 minutes at 2 to 8°C to separate the supernatant. Plasma drug concentrations were determined by the LC-MS/MS method, and relevant pharmacokinetic parameters were calculated using Phoenix WinNonlin 6.3 pharmacokinetic software with non-compartmental model linear-log trapezoidal method.
# [6] = Intragastric Administration (10 mg/kg) (fed)
# [7] = Intragastric Administration (5 mg/kg)
structure (smiles),measurement,setting,value
O=C1CCC(c2noc3ccc4c(NC(=O)CN5CCN(C[C@H]6CC[C@H](n7cc(NC(=O)c8coc(-c9ccnc(NCC%10CC%10)c9)n8)c(C(F)F)n7)CC6)CC5)cccc4c23)C(=O)N1 (stereo partly drawn) [Hydrochloride of Compound of Formula (I)],Dmax,[1],108%
same,Dmax,[2],72.3%
same,Dmax,[3],73.5%
same,Area Under the Drug-Time Curve (0-inf),[4]; [6],4.47 µM·h
same,Peak Concentration,[4]; [6],0.54 µM
same,Area Under the Drug-Time Curve (0-inf),[4]; Intravenous Injection (2 mg/kg) (fasted),5.40 µM·h
same,Area Under the Drug-Time Curve (0-inf),[5]; [7],3.20 µM·h
same,Peak Concentration,[5]; [7],0.41 µM
same,Area Under the Drug-Time Curve (0-inf),[5]; Intravenous Injection (0.5 mg/kg),0.44 µM·h
